Key:
[1] = test system: edible substrates (blueberries, bananas, strawberries, lemons, avocados, and limes); assay: Coating studies on edible substrates: mass loss over time and visible residues; conditions: coated edible substrates
Description: For these studies, mixtures (which were typically solid but in some cases were oils) comprising compounds of Formula I and/or compounds of Formula II and/or other additives (e.g., 1-monoacylglycerides, fatty acids, esters, amides, amines, thiols, carboxylic acids, ethers, aliphatic waxes, alcohols, salts (inorganic and organic), or combinations thereof) were first formed. The mixtures were then dissolved in a solvent (e.g., either ethanol or a water and ethanol mixture, for instance in a 1:2 water:ethanol ratio or lower) to form a solution, from which coatings were formed over a variety of edible substrates (blueberries, bananas, strawberries, lemons, avocados, and limes). Details about the specific formulations used and procedures for the forming of the coatings are described below for illustrative purposes with reference to FIGS. 2-18. The substrates were then examined for the presence of visible residues on the surface and tested for percent mass loss over time, and were compared to control samples without the coatings. A variety of different compositions of mixtures (e.g., solid mixtures) were used to form coatings on a variety of edible substrates, where the specific compositions and coating procedures are described below with reference to FIGS. 2-18. Some of the compositions were substantially pure (e.g., at least 90% or at least 95% pure) 2-monoacylglyceride compounds (e.g., compounds of Formula I). For example, coatings were formed from compositions that were substantially pure PA-2G, as well as from compositions that were substantially pure SA-2G. Some of the compositions were substantially pure (e.g., at least 90% or at least 95% pure) 1-monoacylglyceride compounds (e.g., compounds of Formula II). For example, coatings were formed from compositions that were substantially pure PA-1G, compositions that were substantially pure OA-1G, and compositions that were substantially pure SA-1G. Some of the compositions included a compound of Formula I and an additive, where for each of these compositions various ratios of the compound of Formula I to the additive were tested. For example, coatings were formed from compositions which included the combinations of a compound of Formula I and an additive as listed in Table 1 below. Additives included, for example, a saturated or unsaturated compound of Formula II, a saturated or unsaturated fatty acid, an ethyl ester, and/or a second compound of Formula I which is different from the (first) compound of Formula I (e.g., has a different length carbon chain).

finger limes = assay: Average daily mass loss rate and residues of coated finger limes; conditions: bag coated, 10 mg/mL in ethanol, over several days, 24 finger limes per group, 23-27°C, 40-55% humidity
Description: FIGS. 2-18 illustrate the effects of coating a variety of edible substrates with the compositions described herein. To form the coatings, solid mixtures of the compositions were first fully dissolved in ethanol at a concentration of 10 mg/mL (except where a different concentration is specified) to form a solution. The solution was then applied to the substrate either by spraying or dip coating, as detailed for each of the substrates below. The substrates were then dried on drying racks under ambient conditions (temperature in the range of 23° C.-27° C., humidity in the range of 40%-55%) until all of the solvent had evaporated, allowing the coatings to form over the substrates. […] For all mixtures described, PA was purchased from Sigma Aldrich, PA-1G was purchased from Tokyo Chemical Industry Co, PA-2G was prepared following the method of Example 1 above, SA was purchased from Sigma Aldrich, SA-1G was purchased from Alfa Aesar, SA-2G was prepared following the method of Example 3 above, MA was purchased from Sigma Aldrich, MA-1G was purchased from Tokyo Chemical Industry Co, OA was purchased from Sigma Aldrich, and EtPA was purchased from Sigma Aldrich.
FIG. 11 is a graph showing average daily mass loss rates for finger limes coated with various mixtures of PA-2G (compound of Formula I) and PA-1G (additive) measured over the course of several days. […]

| Compound | reduction in mass loss versus uncoated control samples [1] | average daily mass loss rate (finger limes) |
| --- | --- | --- |
| CCCCCCCC/C=C\CCCCCCCC(=O)OCC(O)CO (centres unmarked) [OA-1G, 2,3-dihydroxypropan-1-yl (9Z)-Octadecenoate] | at most a nominal reduction in mass loss |  |
| CCCCCCCCCCCCCCCCCC(=O)OC(CO)CO [SA-2G, 1,3-dihydroxypropan-2-yl octadecanoate] | at most a nominal reduction in mass loss |  |
| CCCCCCCCCCCCCCCC(=O)OC(CO)CO [PA-2G, 1,3-dihydroxypropan-2-yl palmitate] | at most a nominal reduction in mass loss | under 4 % per day |
| CCCCCCCCCCCCCC(=O)OCC(O)CO (centres unmarked) [MA-1G, 2,3-dihydroxypropan-1-yl tetradecanoate] | at most a nominal reduction in mass loss |  |
| CCCCCCCCCCCCCCCCCC(=O)OCC(O)CO (centres unmarked) [SA-1G, 2,3-dihydroxypropan-1-yl octadecanoate] | at most a nominal reduction in mass loss |  |
| CCCCCCCCCCCCCCCC(=O)OCC(O)CO (centres unmarked) [PA-1G, 2,3-dihydroxypropan-1-yl palmitate] | at most a nominal reduction in mass loss | over 4 % per day |

Reference: US20250297116A1, “PRECURSOR COMPOUNDS FOR MOLECULAR COATINGS” (Apeel Technology, Inc., priority 2015, published 2025)
